In paper PMC6930659, “Antiprotozoal Activity of Turkish Origanum onites Essential Oil and Its Components” (Molecules, 2019):
Converted amounts (≈) assume the structure as drawn. Like-named read-outs stand apart in the source and are kept apart here.

How the values were obtained:
[1] = test system: promastigote forms of L. chagasi; parameters: method as in PMID 23558998, PMID 23850505; settings: cited from earlier work
[2] = test system: chloroquine-resistant P. falciparum strain; settings: reported to be inactive; cited from earlier work
[3] = In vitro assay for cytotoxicity on mammalian cells (resazurin); format: cell-based, rat
Method: Assays were performed in 96 well microtiter plates (4 × 10^4 L6 cells/well), each well containing 100 μL of RPMI 1640 medium supplemented with 1% L-glutamine (200 mM) and 10% FBS. L6 cells are a primary cell line derived from rat skeletal myoblasts. Serial drug dilutions of seven 3-fold dilution steps covering a range from 90 to 0.123 μg/mL were prepared. After 72 h of incubation, the plates were inspected under an inverted microscope to assure growth of the controls and sterile conditions. Resazurin solution (10 μL) (12.5 mg resazurin in 100 mL double-distilled water) was then added to each well and the plates incubated for another 2 h. The plates were then read with a Spectramax Gemini XS microplate fluorometer (Molecular Devices Cooperation, Sunnyvale, CA, USA) using an excitation wavelength of 536 nm and an emission wavelength of 588 nm. Data were analyzed using the microplate reader software Softmax Pro (Molecular Devices Cooperation, Sunnyvale, CA, USA). From the sigmoidal inhibition curves, the IC50 values were calculated. Podophyllotoxin was the positive control.

L. infantum = test system: L. infantum; parameters: method as in doi:10.1016/j.indcrop.2015.09.049; settings: cited from earlier work
[4] = test system: L. donovani (strain MHOM/ET/67/L82) amastigotes; assay: In vitro assay for Leishmania donovani axenic amastigotes (resazurin); format: cell-based; settings: 72 h, read-out: IC50 Leishmania donovani
Method: Amastigotes of L. donovani (strain MHOM/ET/67/L82) were grown in axenic culture at 37 °C in SM medium at pH 5.4 supplemented with 10% heat-inactivated FBS under an atmosphere of 5% CO2. Culture medium (100 μL) with 10^5 amastigotes from axenic culture with or without a serial drug dilution was seeded in 96 well microtiter plates. Serial drug was prepared covering a range of dilutions from 90 to 0.123 μg/mL. After 72 h of incubation, the plates were inspected under an inverted microscope to assure growth of the controls and sterile conditions. Subsequently, 10 μL resazurin solution (12.5 mg resazurin dissolved in 100 mL double-distilled water) was added to each well and the plates were incubated for another 2 h. The plates were then read with a Spectramax Gemini XS microplate fluorometer (Molecular Devices Cooperation, Sunnyvale, CA, USA) using an excitation wavelength of 536 nm and an emission wavelength of 588 nm. Data were analyzed using the software Softmax Pro (Molecular Devices Cooperation, Sunnyvale, CA, USA). A decrease of fluorescence (=inhibition) was expressed as percentage of the fluorescence of control cultures and plotted against the drug concentrations. From the sigmoidal inhibition curves, the IC50 values were calculated. Miltefosine was used as a reference drug.

T. cruzi trypomastigotes = test system: T. cruzi trypomastigotes; parameters: method as in PMID 17024354; settings: 24 h incubation; cited from earlier work
P. falciparum = test system: P. falciparum; parameters: method as in PMID 22441836; settings: cited from earlier work
T. cruzi epimastigotes = test system: T. cruzi epimastigotes; parameters: method as in PMID 17024354; settings: 24 h incubation; cited from earlier work
[5] = test system: intracellular amastigotes of T.-cruzi-infected Vero cells; parameters: method as in PMID 20428679; settings: cited from earlier work
Trypanosoma cruzi = test system: Trypanosoma cruzi; parameters: method as in earlier work; settings: 200 mg/kg/day, intragastric route, 22nd day post-infection; cited from earlier work

SMILES | IC50 promastigote forms of L. chagasi [1] [µg/mL] | IC50 [2] [mM] | IC50 at 72 h ([3]; rat) [µg/mL] | IC50 L. infantum (L. infantum) [µg/mL] | IC50 [4] [µg/mL] | IC50 T. cruzi trypomastigotes (T. cruzi trypomastigotes) [µg/mL] | IC50 in vitro antimalarial activity (P. falciparum) [µg/mL] | IC50 T. cruzi epimastigotes (T. cruzi epimastigotes) [µg/mL] | selective index ([5]; T.-cruzi-infected Vero cells) | IC50 intracellular amastigotes of T.-cruzi-infected Vero cells [5] [µg/mL] | IC50 at 72 h ([3]; L6 cells (rat skeletal myoblasts), rat skeletal myoblasts, 72 h, means of two determinations ± deviation, read-out: IC50 Cytotoxicity L6 cells) [µg/mL] | parasitemia in T. cruzi infected albino mice (in words) (Trypanosoma cruzi) | IC50 ([4]; axenic amastigotes, means of two determinations ± deviation) [µg/mL]
Cc1ccc(C(C)C)cc1O [Carvacrol] | 2.3 | > 1 | 48.8 ± 1.1 (≈ 325 µM) | 7.35 (≈ 48.9 µM) | 13.1 ± 3.9 (≈ 87.2 µM) |  |  |  |  |  |  |  | 
Cc1ccc(C(C)C)c(O)c1 [Thymol] | 9.8 |  |  |  |  | 53 (≈ 353 µM) | 4.5 (≈ 30 µM) | 62 (≈ 413 µM) | greater than 10 | 3.2 | 51.8 ± 6.2 (≈ 345 µM) | significant reduction in parasitemia | 17.3 ± 4.1 (≈ 115 µM)
